The values below come from patent US20240263142A1, “HUMAN OVARIAN CANCER NIRAPARIB-RESISTANT CELL STRAIN AND USE THEREOF” (WOMEN’S HOSPITAL, ZHEJIANG UNIVERSITY SCHOOL OF MEDICINE, priority 2022, published 2024).

One assay deals with A2780 cells. The assay is described as follows: CCK-8 cytotoxicity experiment on parental A2780 cells. The assay is classed as cell-based. Particulars: Homo sapiens, 72 h drug treatment. As for the experimental part:
(§1) A cell counting kit-8 (CCK-8) of Shanghai Beyotime Biotechnology Co., Ltd. (C0038) was used in the cytotoxicity experiment. Cells in logarithmic growth phase were collected, and the concentration of cell suspension was adjusted to 5×10^4 cells/ml; 100 μl of the cell suspension was added to each well of 96-well plate, and the density of the cells to be tested was 5000 cells/well; cultures were incubated overnight in the incubator with 5 vol % CO2 at 37° C. until the cells were grown as adherent monolayers, and then drugs with concentrations of 1×10^−3-100 μM were added respectively; 3 replicate wells were set for each concentration; OD values were determined after 72 h of drug treatment; 10 μl CCK-8 solution was added to each well; after further incubation in the cell incubator for 2 h, the absorbance was measured at 450 nm using a microplate reader (Bio-Rad, Model 680), as shown in FIG. 3. The IC50 of the drug was calculated.

For another assay, the system named is A2780-NiraR cells. The assay is described as follows: CCK-8 cytotoxicity experiment on Niraparib-resistant A2780-NiraR cells (resistance index, stability of resistance). Format: cell-based, human. Particulars: for Drug resistance index (RI) = IC50 of drug-resistant cells/IC50 of parental cells: A2780-NiraR vs A2780; for IC50: Homo sapiens. As for the experimental part: as §1
Resistance index (RI)=IC50 of drug-resistant cells/IC50 of parental cells.
After the establishment of A2780-NiraR cell strain, the drug resistance was re-tested after cell resuscitation following 3-month drug-withdrawal culture and 6-month liquid nitrogen cryopreservation. The procedure was the same as that of the resistance index determination in part 3.

Setting [1] is: A2780-NiraR cells, 72 h drug treatment, CCK-8, read-out: IC50.

Where two headings read alike, the source gives them in different places.

In the case of `NC(=O)c1cccc2cn(-c3ccc([C@@H]4CCCNC4)cc3)nc12` [Niraparib], the IC50 in the assay on A2780 cells stood at 3170 nM; with A2780-NiraR cells (A2780-NiraR after resuscitation following 3-month drug-withdrawal culture and 6-month liquid nitrogen cryopreservation, read-out: IC50 of A2780-NiraR on re-test), 24 µM; in the assay with A2780-NiraR cells (setting [1]), 26.2 µM. The “Resistance of A2780-NiraR cells in words” value in the assay on A2780-NiraR cells (A2780-NiraR cells) is listed as “highly resistant”. Besides, in the assay with A2780-NiraR cells, the “Drug resistance index (RI) = IC50 of drug-resistant cells/IC50 of parental cells” value worked out at 8.274.

Consider `CC(=O)O[C@H]1C(=O)[C@@]2(C)[C@H]([C@H](OC(=O)c3ccccc3)[C@]3(O)C[C@H](OC(=O)[C@H](O)[C@@H](NC(=O)c4ccccc4)c4ccccc4)C(C)=C1C3(C)C)[C@]1(OC(C)=O)CO[C@@H]1C[C@@H]2O` [Paclitaxel], for which the half-inhibitory concentration (IC50) is 10 nM with A2780 cells and 0.318 µM with A2780-NiraR cells (setting [1]). In addition, in the assay with A2780-NiraR cells (A2780-NiraR cells), the “Resistance of A2780-NiraR cells in words” value is listed as “cross-resistant”. In addition, the “Drug resistance index (RI) = IC50 of drug-resistant cells/IC50 of parental cells” value in the assay on A2780-NiraR cells came to 31.02.

Broadly, the IC50 is the concentration that inhibits the measured activity by half.
